Assay results taken from paper PMC10650714, “Double Attack to Oxidative Stress in Neurodegenerative Disorders: MAO-B and Nrf2 as Elected Targets” (Molecules, 2023).

Biological target: T1, recombinant hMAO-B (Homo sapiens, UniProt P27338)
T1 construct: purchased Fluka-Sigma-Aldrich s.r.l; (Italy); host or cells: Baculovirus infected BT1 cells
T1 sequence (P27338 1-520): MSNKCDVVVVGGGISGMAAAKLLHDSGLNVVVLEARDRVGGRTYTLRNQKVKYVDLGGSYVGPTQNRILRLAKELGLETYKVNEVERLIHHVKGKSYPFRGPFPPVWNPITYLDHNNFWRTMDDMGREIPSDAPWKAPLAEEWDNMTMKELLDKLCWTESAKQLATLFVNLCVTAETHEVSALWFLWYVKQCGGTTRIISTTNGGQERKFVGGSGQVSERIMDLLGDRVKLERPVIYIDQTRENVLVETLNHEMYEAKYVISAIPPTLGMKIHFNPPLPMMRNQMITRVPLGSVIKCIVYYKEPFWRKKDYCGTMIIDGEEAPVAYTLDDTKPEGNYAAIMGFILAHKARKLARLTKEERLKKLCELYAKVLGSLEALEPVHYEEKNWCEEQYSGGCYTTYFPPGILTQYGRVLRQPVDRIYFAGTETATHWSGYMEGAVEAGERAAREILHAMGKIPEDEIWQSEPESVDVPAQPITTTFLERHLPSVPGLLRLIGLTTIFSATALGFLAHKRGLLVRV
Test: Time-dependent inhibition study on hMAO-B
Format: biochemical
Settings: pre-incubation 0 to about 20 min, 5 and 20 µM
Description: Time-dependent inhibition studies. The time-dependent inactivation by 2 was performed as previously reported. In detail, recombinant hMAO-B was pre-incubated in the K/Pi buffer for periods from 0 to about 20 min, at 37 °C in the absence (control sample) and in the presence of compound 2 (5 and 20 µM). After various pre-incubation times (at least 5 times after mixing of enzyme and inhibitor), the residual enzyme activity was determined: an aliquot of sample was withdrawn and diluted in the assay buffer (50-fold dilution) and then, the substrate was added under a “saturating” condition (Kyn = 300 µM).

O=C(/C=C/c1ccc(O)c(O)c1)Oc1ccc(CC2SC(=O)NC2=O)cc1 (stereo not shown) [Compound 2, 4-((2,4-Dioxothiazolidin-5-yl)methyl)phenyl (E)-3-(3,4-Dihydroxyphenyl)acrylate]
time-dependent inhibition / inactivation of hMAO-B: no inactivation and no time-dependent inhibition
